Assay results taken from US7759345B2, “Antitumoral derivatives of ET-743” (priority 2001, dated 2010).
Where two headings read alike, the source gives them in different places.

Experiments:
P-388 = test: Inhibition of cell growth by counting cells, P-388; type: cell-based, mouse; conditions: read-out: IC50 (molar) P-388
How it was run: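 IC50 is the sample concentration halving growth, taken from dose-response curves of cell counts (Coulter counter, duplicate wells) relative to drug-free cultures. P-388 (DBA/2 mouse lymphoid neoplasm) cells plated at 1×10^4 per well in EMEM with 5% FCS plus test sample.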

A-549 = test: Inhibition of cell growth by counting cells, A-549; type: cell-based, human; conditions: read-out: IC50 (molar) A-549
How it was run: (§1)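 1×10^4 cells/well, EMEM 5% FCS + test sample at several concs, duplicates; 3 d, 37° C, 5% CO2, humidified. Trypsinize, Coulter count; % growth vs untreated wells; IC50 from dose-response curve.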

HT-29 = test: Inhibition of cell growth by counting cells, HT-29; type: cell-based, human; conditions: read-out: IC50 (molar) HT-29
How it was run: as §1

MEL-28 = test: Inhibition of cell growth by counting cells, MEL-28; type: cell-based, human; conditions: read-out: IC50 (molar) MEL-28
How it was run: as §1

DU-145 = test: Inhibition of cell growth by counting cells, DU-145; type: cell-based, human; conditions: read-out: IC50 (molar) DU-145
Description: 1°.—Inhibition of Cell Growth by Counting Cells.
This form of the assay employs 24 well multidishes of 16 mm diameter (Bergeron, 1984; Schroeder, 1981). The tumor cell lines employed are: P-388 (ATCC CCL 46), suspension culture of a lymphoid neoplasm from a DBA/2 mouse; A-549 (ATCC CCL 185), monolayer culture of a human lung carcinoma; HT-29 (ATCC HTB-38), monolayer culture of a human colon carcinoma; MEL-28 (ATCC HTB-72), monolayer culture of a human melanoma and DU-145 (ATCC HTB-81), monolayer culture of a human prostate carcinoma.
Cells were maintained, in logarithmic phase of growth in Eagle's Minimum Essential Medium, with Earle's Balanced Salts, with non-essential amino acids, with 2.0 mM L-Glutamine, without sodium bicarbonate (EMEM/neaa), supplemented with 10% Fetal Calf Serum (FCS), 10^−2 M. sodium bicarbonate and 0.1 U/l penicillin G+0.1 g/l streptomycin sulfate. For the experiments, cells are harvested from subconfluent cultures using trypsin and resuspended in fresh medium before plating.
A-549, HT-29, MEL-28 and DU-145 cells were seeded into 16 mm diameter wells at 1×10^4 cells per well in 1 ml aliquots of EMEM 5% FCS containing different concentrations of the sample to be tested. A separate set of cultures without drug was seeded as control of growth, to ensure that cells remained in exponential phase of growth. All determinations are carrying out in duplicate. After three days of incubation at 37° C., 5% CO2 in a 98% humid atmosphere cells were stained with 0.1% crystal violet. An approximately IC50 was determined by comparing the growth in wells with drug to the growth in wells control.
For quantifying the activity, after the incubation time, cells are trypsinized and counted in a Coulter Counter ZM. All counts (net cells per well), represent the average of duplicate wells. % G, percent of growth relative to cultures without drug. The results of these assays are used to generate dose-response curves from which more precise IC50 values are determined (sample concentration which produces 50% cell growth inhibition).
Obtained results may predict the usefulness of a certain drug as a potential cancer treatment. For this technique, compounds which show IC50 values smaller than 1 μg/ml are selected to continue with further studies. IC50's data allow to predict that not only could a drug be cystostatic, but also it could have a potential in terms of tumor reduction.

[1] = Mus musculus, P388, 72 h, three days of incubation
[2] = Homo sapiens, A549, 72 h, three days of incubation
[3] = Homo sapiens, HT-29, 72 h, three days of incubation
[4] = Homo sapiens, SK-MEL-28, 72 h, three days of incubation
[5] = Homo sapiens, DU-145, 72 h, three days of incubation

| Compound | IC50 (P-388; [1]) | IC50 (A-549; [2]) | IC50 (HT-29; [3]) | IC50 (MEL-28; [4]) | IC50 (DU-145; [5]) | IC50 (DU-145; Homo sapiens, DU-145, 72 h) | also measured |
| --- | --- | --- | --- | --- | --- | --- | --- |
| C=CCOC(=O)NC(CSCC1c2ccccc2-c2ccccc21)C(=O)Oc1cc2c(cc1OC)[C@@]1(CS[C@@H]3c4c(OC(C)=O)c(C)c5c(c4[C@H](COC1=O)N1C3[C@H]3c4c(cc(C)c(OC)c4O)C[C@@H]([C@@H]1C#N)N3C)OCO5)NCC2 (stereo partly shown) [Compound 18] | 0.441 nM | 0.441 nM | 0.441 nM | 0.441 nM | 0.441 nM |  |  |
| COc1cc2c(cc1OC(=O)CCCCC1SCC3NC(=O)NC31)CCNC21CSC2c3c(OC(C)=O)c(C)c4c(c3C(COC1=O)N1C(C#N)C3Cc5cc(C)c(OC)c(O)c5C(C21)N3C)OCO4 (stereo not shown) [Compound 19] |  |  |  |  |  |  | IC50 (P-388; three days of incubation): 0.502 nM; IC50 (A-549; three days of incubation): 0.502 nM; IC50 (HT-29; three days of incubation): 0.502 nM; IC50 (MEL-28; three days of incubation): 0.502 nM; IC50 (DU-145; three days of incubation): 0.502 nM |
| COc1cc2c(cc1OC(=O)CCCCC1SCC3NC(=O)NC31)CCNC21CSC2c3c(OC(C)=O)c(C)c4c(c3C(COC1=O)N1C(C#N)C3Cc5cc(C)c(OC)c(OC(=O)CCCCC6SCC7NC(=O)NC76)c5C(C21)N3C)OCO4 (stereo not shown) [Compound 20] |  |  |  |  |  |  | IC50 (P-388; three days of incubation): 8.18 nM; IC50 (A-549; three days of incubation): 8.18 nM; IC50 (HT-29; three days of incubation): 8.18 nM; IC50 (MEL-28; three days of incubation): 8.18 nM; IC50 (DU-145; three days of incubation): 8.18 nM |
| COc1cc2c(cc1OC(=O)OCc1ccccc1)CCN[C@]21CS[C@@H]2c3c(OC(C)=O)c(C)c4c(c3[C@H](COC1=O)N1C2[C@H]2c3c(cc(C)c(OC)c3O)C[C@@H]([C@@H]1C#N)N2C)OCO4 (stereo partly shown) [Compound 27] | 0.111 nM | 0.111 nM | 0.111 nM | 0.111 nM | 0.111 nM |  |  |
| COc1cc2c(cc1OC(=O)OCc1ccccc1)CCN[C@]21CS[C@@H]2c3c(OC(C)=O)c(C)c4c(c3[C@H](COC1=O)N1C2[C@H]2c3c(cc(C)c(OC)c3OC(=O)OCc3ccccc3)C[C@@H]([C@@H]1C#N)N2C)OCO4 (stereo partly shown) [Compound 28] | 9.62 nM | 9.62 nM | 9.62 nM | 9.62 nM | 9.62 nM |  |  |
| CCOc1cc2c(cc1OC)[C@@]1(CS[C@@H]3c4c(OC(C)=O)c(C)c5c(c4[C@H](COC1=O)N1C3[C@H]3c4c(cc(C)c(OC)c4OCC)C[C@@H]([C@@H]1C#N)N3C)OCO5)NCC2 (stereo partly shown) [Compound 38] | 12.1 nM | 12.1 nM | 12.1 nM | 12.1 nM |  | 12.1 nM |  |
| CCCOc1cc2c(cc1OC)[C@@]1(CS[C@@H]3c4c(OC(C)=O)c(C)c5c(c4[C@H](COC1=O)N1C3[C@H]3c4c(cc(C)c(OC)c4OCCC)C[C@@H]([C@@H]1C#N)N3C)OCO5)NCC2 (stereo partly shown) [Compound 40] | 1170 nM | 1170 nM | 1170 nM | 1170 nM |  | 1170 nM |  |
| C=CCOc1cc2c(cc1OC)[C@@]1(CS[C@@H]3c4c(OC(C)=O)c(C)c5c(c4[C@H](COC1=O)N1C3[C@H]3c4c(cc(C)c(OC)c4O)C[C@@H]([C@@H]1C#N)N3C)OCO5)NCC2 (stereo partly shown) [Compound 41] | 1.23 nM | 1.23 nM | 1.23 nM | 1.23 nM |  | 1.23 nM |  |
| C=CCOc1cc2c(cc1OC)[C@@]1(CS[C@@H]3c4c(OC(C)=O)c(C)c5c(c4[C@H](COC1=O)N1C3[C@H]3c4c(cc(C)c(OC)c4OCC=C)C[C@@H]([C@@H]1C#N)N3C)OCO5)NCC2 (stereo partly shown) [Compound 42] | 11.8 nM | 11.8 nM | 11.8 nM | 11.8 nM |  | 11.8 nM |  |
| COc1cc2c(cc1OCc1ccccc1)CCN[C@]21CS[C@@H]2c3c(OC(C)=O)c(C)c4c(c3[C@H](COC1=O)N1C2[C@H]2c3c(cc(C)c(OC)c3O)C[C@@H]([C@@H]1C#N)N2C)OCO4 (stereo partly shown) [Compound 43] |  |  |  |  |  | 1.16 nM | IC50 (P-388; Mus musculus, P388, 72 h): 1.16 nM; IC50 (A-549; Homo sapiens, A549, 72 h): 1.16 nM; IC50 (HT-29; Homo sapiens, HT-29, 72 h): 1.16 nM; IC50 (MEL-28; Homo sapiens, SK-MEL-28, 72 h): 1.16 nM |
| COc1cc2c(cc1OCc1ccccc1)CCN[C@]21CS[C@@H]2c3c(OC(C)=O)c(C)c4c(c3[C@H](COC1=O)N1C2[C@H]2c3c(cc(C)c(OC)c3OCc3ccccc3)C[C@@H]([C@@H]1C#N)N2C)OCO4 (stereo partly shown) [Compound 44] |  |  |  |  |  | 105 nM | IC50 (P-388; Mus musculus, P388, 72 h): 105 nM; IC50 (A-549; Homo sapiens, A549, 72 h): 105 nM; IC50 (HT-29; Homo sapiens, HT-29, 72 h): 105 nM; IC50 (MEL-28; Homo sapiens, SK-MEL-28, 72 h): 105 nM |
| COc1cc2c(cc1O)CCN[C@]21CS[C@@H]2c3c(OC(C)=O)c(C)c4c(c3[C@H](COC1=O)N1C2[C@H]2c3c(cc(C)c(OC)c3OC(=O)OC(C)(C)C)C[C@@H]([C@@H]1C#N)N2C)OCO4 (stereo partly shown) [Compound 47] | 1.15 nM | 1.15 nM | 1.15 nM | 1.15 nM | 1.15 nM |  |  |
| COc1cc2c(cc1OC(=O)/C=C/c1ccccc1)CCN[C@]21CS[C@@H]2c3c(OC(C)=O)c(C)c4c(c3[C@H](COC1=O)N1C2[C@H]2c3c(cc(C)c(OC)c3OC(=O)OC(C)(C)C)C[C@@H]([C@@H]1C#N)N2C)OCO4 (stereo partly shown) [Compound 49] | 0.999 nM | 0.999 nM | 0.999 nM | 0.999 nM |  | 0.999 nM |  |
| C=CCOc1cc2c(cc1OC)[C@@]1(CS[C@@H]3c4c(O)c(C)c5c(c4[C@H](COC1=O)N1C3[C@H]3c4c(cc(C)c(OC)c4OCC=C)C[C@@H]([C@@H]1C#N)N3C)OCO5)NCC2 (stereo partly shown) [Compound 50] | 124 nM | 124 nM | 124 nM | 124 nM | 124 nM |  |  |
| CCCC(=O)Oc1cc2c(cc1OC)[C@@]1(CS[C@@H]3c4c(OC(C)=O)c(C)c5c(c4[C@H](COC1=O)N1C3[C@H]3c4c(cc(C)c(OC)c4O)C[C@@H]([C@@H]1O)N3C)OCO5)NCC2 (stereo partly shown) [Compound 58] | 0.12 nM | 0.12 nM | 0.12 nM | 0.12 nM | 0.12 nM |  |  |
| CCCCCCCCCCCCCCCC(=O)Oc1cc2c(cc1OC)[C@@]1(CS[C@@H]3c4c(OC(C)=O)c(C)c5c(c4[C@H](COC1=O)N1C3[C@H]3c4c(cc(C)c(OC)c4O)C[C@@H]([C@@H]1O)N3C)OCO5)NCC2 (stereo partly shown) [Compound 60] | 10 nM | 5 nM | 5 nM | 5 nM | 5 nM |  |  |
| C=CCOC(=O)NC(CSCC1c2ccccc2-c2ccccc21)C(=O)Oc1cc2c(cc1OC)[C@@]1(CS[C@@H]3c4c(OC(C)=O)c(C)c5c(c4[C@H](COC1=O)N1C3[C@H]3c4c(cc(C)c(OC)c4O)C[C@@H]([C@@H]1O)N3C)OCO5)NCC2 (stereo partly shown) [Compound 62] | 0.888 nM | 0.888 nM | 0.888 nM | 0.888 nM | 0.888 nM |  |  |
